Experimental data as given in patent publication US6620585B1, “Use of ectoenzymes and secreted enzymes to monitor cellular proliferation” (priority 2000, dated 2003).
In brackets after ≈: the same amount, converted by molar mass. Positions of bridges follow the written chain, without caps; N, C: chain ends. Non-standard residues stand in square brackets, D forms with d. Residues, ends and D or L forms follow the SMILES beside them. *: point of attachment. Ileψ(thiazoline)Cys = CC[C@H](C)[C@H](N)C1=N[C@H](C(=O)*)CS1; dOrn = NCCC[C@@H](N)C(=O)O

Tests used:
[1] = system: bacterial strain engineered for expression of an antisense complementary to a proliferation-required 50S ribosomal protein (rplL and rplJ); assay type: cell-based, E. coli; conditions: for Sensitivity Increased ?: significant decrease in IC50 in the presence of inducer (IPTG); for IC50 (+IPTG): antisense to rplL and rplJ induced, 400 μM IPTG, growth by light scattering at 595 nm, mid-exponential time point
Procedure: The effectiveness of the above assays was validated using proliferation-required genes from E. coli which were identified using procedures similar to those described above. Antibiotics of various chemical classes and modes of action were purchased from Sigma Chemicals (St. Louis, Mo.). Stock solutions were prepared by dissolving each antibiotic in an appropriate aqueous solution based on information provided by the manufacturer. The final working solution of each antibiotic contained no more than 0.2% (w/v) of any organic solvent. To determine their potency against a bacterial strain engineered for expression of an antisense complementary to a proliferation-required 50S ribosomal protein, each antibiotic was serially diluted two or three fold in growth medium supplemented with the appropriate antibiotic for maintenance of the anti-sense construct. At least ten dilutions were prepared for each antibiotic. 25 μL aliquots of each dilution were transferred to discrete wells of a 384-well microplate (the assay plate) using a multi-channel pipette. Quadruplicate wells were used for each dilution of an antibiotic under each treatment condition (plus and minus inducer). Each assay plate contained twenty wells for cell growth controls (growth media replacing antibiotic), ten wells for each treatment (plus and minus inducer, in this example IPTG). Assay plates were usually divided into the two treatments: half the plate containing induced cells and an appropriate concentrations of inducer (in this example IPTG) to maintain the state of induction, the other half containing non-induced cells in the absence of IPTG.
Cells for the assay were prepared as follows. Bacterial cells containing a construct, from which expression of antisense nucleic acid complementary to rplL and rplJ, which encode proliferation-required 50S ribosomal subunit proteins, is inducible in the presence of IPTG, were grown into exponential growth (OD600 0.2 to 0.3) and then diluted 1:100 into fresh media containing either 400 μM or 0 μM inducer (IPTG). These cultures were incubated at 37° C. for 2.5 hr. After a 2.5 hr incubation, induced and non-induced cells were respectively diluted into an assay medium at a final OD600 value of 0.0004. The medium contained an appropriate concentration of the antibiotic for the maintenance of the antisense construct. In addition, the medium used to dilute induced cells was supplemented with 800 μM IPTG so that addition to the assay plate would result in a final IPTG concentration of 400 μM. Induced and non-induced cell suspensions were dispensed (25 μl/well) into the appropriate wells of the assay plate as discussed previously. The plate was then loaded into a plate reader, incubated at constant temperature, and cell growth was monitored in each well by the measurement of light scattering at 595 nm. Growth was monitored every 5 minutes until the cell culture attained a stationary growth phase. For each concentration of antibiotic, a percentage inhibition of growth was calculated at the time point corresponding to mid-exponential growth for the associated control wells (no antibiotic, plus or minus IPTG). For each antibiotic and condition (plus or minus IPTG), a plot of percent inhibition versus log of antibiotic concentration was generated and the IC50 determined.

[2] = system: E. coli strain DJKGC4; assay: Chitobiase-based cell growth assay, gentamicin dose response in 1536-well plate; conditions: 5 hours, 100 μM MNAG
Procedure: FIG. 6 is an E. coli dose response curve to gentamicin. E. coli strain DJKGC4 was inubated with various concentrations of gentamicin for 5 hours in a 1536 well plate in the presence of 100 μM 4-methylumbelliferyl N-acetyl β-D-glucosaminide (MNAG). After removal of background fluorescence, the inhibition of cell growth produced by each gentamicin concentration was calculated by comparison to the fluorescence generated by control cells growing in the absence of gentamicin.
To follow cell growth using the fluorogenic substrate MNAG, E. coli cells of strain DJKGC4 containing a chromosomally integrated, constitutively expressed chitobiase gene were added to an appropriate growth medium containing 100 μM MNAG, and the resulting cell suspension was dispensed into the wells of 1536-well microplates as described above. Following addition of test compounds and controls, plates were incubated at 37° C. and cell growth was followed by measurement of the fluorescent product of chitobiase activity, 4-methylumbelliferone using an Acquest reader (LJL Biosystems, excitation wavelength 360 nm, emission wavelength 425 nm).
An E. coli dose response to gentamicin was obtained by incubating E. coli strain DJKGC4 with various concentrations of gentamicin for 5 hours in a 1536-well plate in the presence of 100 μM MNAG. […]

CC[C@H](C)[C@H](N)C1=N[C@H](C(=O)N[C@@H](CC(C)C)C(=O)N[C@H](CCC(=O)O)C(=O)N[C@H](C(=O)N[C@H]2CCCCNC(=O)[C@H](CC(N)=O)NC(=O)[C@@H](CC(=O)O)NC(=O)[C@H](Cc3cnc[nH]3)NC(=O)[C@@H](Cc3ccccc3)NC(=O)[C@H]([C@@H](C)CC)NC(=O)[C@@H](CCCN)NC2=O)[C@@H](C)CC)CS1 [Bacitracin] ({Ileψ(thiazoline)Cys}-L[dE]IK[dOrn]I[dF]H[dD]N; lactam 4-C)
Sensitivity Increased ? [1]: No

CO/N=C(\C(=O)N[C@@H]1C(=O)N2C(C(=O)O)=C(COC(C)=O)CS[C@H]12)c1csc(N)n1 [Cefotaxime]
Sensitivity Increased ? [1]: No

CO[C@@]1(NC(=O)Cc2cccs2)C(=O)N2C(C(=O)O)=C(COC(N)=O)CS[C@@H]21 [Cefoxitin]
Sensitivity Increased ? [1]: No

O=C(N[C@H](CO)[C@H](O)c1ccc([N+](=O)[O-])cc1)C(Cl)Cl [Chloramphenicol]
Sensitivity Increased ? [1]: Yes

CC[C@H]1OC(=O)[C@H](C)[C@@H](O[C@H]2C[C@@](C)(OC)[C@@H](O)[C@H](C)O2)[C@H](C)[C@@H](O[C@@H]2O[C@H](C)C[C@H](N(C)C)[C@H]2O)[C@](C)(O)C[C@@H](C)C(=O)[C@H](C)[C@@H](O)[C@]1(C)O [Erythromycin]
Sensitivity Increased ? [1]: Yes

CC(=O)O[C@H]1C[C@@]2(C)[C@@H](C[C@@H](O)[C@H]3[C@@]4(C)CC[C@@H](O)[C@@H](C)[C@@H]4CC[C@@]32C)/C1=C(\CCC=C(C)C)C(=O)O [Fusidic acid]
Sensitivity Increased ? [1]: Yes

CCC[C@@H]1C[C@@H](C(=O)N[C@@H]([C@H]2O[C@H](SC)[C@H](O)[C@@H](O)[C@H]2O)[C@@H](C)O)N(C)C1 [Lincomycin]
Sensitivity Increased ? [1]: Yes

CN(C)c1ccc(O)c2c1C[C@H]1C[C@H]3[C@H](N(C)C)C(O)=C(C(N)=O)C(=O)[C@@]3(O)C(O)=C1C2=O [Minocycline]
IC50 (+IPTG) [1]: 0.003897 µg/mL (≈ 0.00852 µM)

CCn1cc(C(=O)O)c(=O)c2ccc(C)nc21 [Nalidixic acid]
Sensitivity Increased ? [1]: No

CN[C@@H]1[C@H](O)[C@H](NC)[C@H]2O[C@@]3(O)C(=O)C[C@@H](C)O[C@H]3O[C@@H]2[C@H]1O [Spectinomycin]
IC50 (+IPTG) [1]: <0.156 µg/mL
Sensitivity Increased ? [1]: Yes

[H]/N=C(/N)N[C@H]1[C@H](O)[C@@H](O)[C@H](O[C@@H]2O[C@@H](C)[C@](O)(C=O)[C@H]2O[C@@H]2O[C@@H](CO)[C@H](O)[C@@H](O)[C@@H]2NC)[C@@H](N/C(N)=N\[H])[C@@H]1O [Streptomycin]
Sensitivity Increased ? [1]: Yes

NC[C@H]1O[C@H](O[C@H]2[C@H](O)[C@@H](O[C@H]3O[C@H](CO)[C@@H](O)[C@H](N)[C@H]3O)[C@H](N)C[C@@H]2N)[C@H](N)C[C@@H]1O [Tobramycin]
Sensitivity Increased ? [1]: Yes

CN[C@H](CC(C)C)C(=O)N[C@H]1C(=O)N[C@@H](CC(N)=O)C(=O)N[C@H]2C(=O)N[C@H]3C(=O)N[C@H](C(=O)N[C@H](C(=O)O)c4cc(O)cc(O)c4-c4cc3ccc4O)[C@H](O)c3ccc(c(Cl)c3)Oc3cc2cc(c3O[C@@H]2O[C@H](CO)[C@@H](O)[C@H](O)[C@H]2O[C@H]2C[C@](C)(N)[C@H](O)[C@H](C)O2)Oc2ccc(cc2Cl)[C@H]1O [Vancomycin]
Sensitivity Increased ? [1]: No

Gentamicin
Sensitivity Increased ? [1]: Yes
IC50 by the chitobiase-based assay compared with 384 well plate format, turbidity-based assays [2]: indistinguishable
